Patent publication US8192962B2, “Processes for detecting toxic substances” (Daikin Industries, Ltd., priority 2001, dated 2012)

Tested on: Transport facilitation protein genes
Test: DNA chip mRNA expression in yeast, transport facilitation protein genes (Table 5)
Type: cell-based, Saccharomyces cerevisiae S288C
Procedure: Yeast (Saccharomyces cerevisiae S288C (α SUC2mal mel gap2 CUP1)) were incubated at 25° C. on YPD medium (yeast extract 1%, polypepton 2%, glucose 2%). One of toxic chemical substances was added to the cells at logarithmic growth phase, and the cells were further incubated for two hours. Cells were cultured without any chemical substance in the same condition, and were used as control. Concentrations of the chemical substances were defined to inhibit the growth of the yeast but not lead to death.
After completion of the incubation, the culture was centrifuged to collect the cells. To the cells, sodium acetate buffer (50 mM sodium acetate, 10 mM EDTA, 1% SDS) was added, and the mixture was shaken at 65° C. for five minutes, followed by returning to room temperature, and obtaining the supernatant, of which the procedures were repeated two times. To the supernatant, ½ amount of a solution of phenol/chloroform was added, and the mixture was centrifuged to give a supernatant, which was added with an equal amount of chloroform, and the mixture was centrifuged to give a supernatant. To the supernatant, an equal amount of isopropanol containing 0.3 M sodium acetate was added, and the mixture was allowed to stand at room temperature for 30 minutes, after which the mixture was centrifuged to give a sediment of the whole RNAs. Seventy % ethanol was added to the sediment, and the mixture was again centrifuged to give a sediment, which was then dried and dissolved in water. mRNA was isolated from the whole RNAs as followings. In view of the fact that a poly A chain is attached to the 3′ terminus of mRNA, a polynucleotide having a poly T structure which was immobilized on the surface of latex beads was used to trap the mRNA, and then the mRNA was washed and eluted with spine column (Oligotex-dT30<Super>mRNA Purification Kit, Takara). Reverse transcription of the mRNA was conducted with a reverse transcriptase (Super Script II Reverse Transcriptase; catalogue No. 18064-014, GibcoBRL) using fluorescence-labeled nucleotides to give cDNAs that were introduced with Cy3-dUTP or Cy5-dUTP during the reverse transcription.
The labeled cDNAs were dissolved in TE buffer (10mM Tris-HCl/1 mM EDTA, pH8.0), and the solution was dropped on the DNA chip containing the whole genes of yeast (DNA Chip Research Inc. Japan) so that the cDNAs were hybridized on the DNA chip at 65° C. for over 12 hours. The fluoresces intensity of the DNA chip was read with a scanner, and the ratio relative to the fluorescence intensity resulting from the absence of chemical substance was estimated as the following, which is shown in Tables 1 to 9: […]

## Oc1cc(Cl)c(Cl)cc1Cl [(6), 2,4,5-trichlorophenol]
Yeast gene YBL030C
  The level of expressed mRNA in the presence of chemical substance/The level of expressed mRNA in the absence of chemical substance: 1.1
Yeast gene YBL099W
  The level of expressed mRNA in the presence of chemical substance/The level of expressed mRNA in the absence of chemical substance: 0.9
Yeast gene YBR052C
  The level of expressed mRNA in the presence of chemical substance/The level of expressed mRNA in the absence of chemical substance: 2.1
Yeast gene YBR068C
  The level of expressed mRNA in the presence of chemical substance/The level of expressed mRNA in the absence of chemical substance: 1.9
Yeast gene YBR127C
  The level of expressed mRNA in the presence of chemical substance/The level of expressed mRNA in the absence of chemical substance: 1.1
Yeast gene YBR132C
  The level of expressed mRNA in the presence of chemical substance/The level of expressed mRNA in the absence of chemical substance: 1.2
Yeast gene YBR207W
  The level of expressed mRNA in the presence of chemical substance/The level of expressed mRNA in the absence of chemical substance: 1.6
Yeast gene YBR293W
  The level of expressed mRNA in the presence of chemical substance/The level of expressed mRNA in the absence of chemical substance: 0.9
Yeast gene YBR294W
  The level of expressed mRNA in the presence of chemical substance/The level of expressed mRNA in the absence of chemical substance: 1.2
Yeast gene YBR298C
  The level of expressed mRNA in the presence of chemical substance/The level of expressed mRNA in the absence of chemical substance: 0.4
Yeast gene YCL025C
  The level of expressed mRNA in the presence of chemical substance/The level of expressed mRNA in the absence of chemical substance: 0.9
Yeast gene YCL038C
  The level of expressed mRNA in the presence of chemical substance/The level of expressed mRNA in the absence of chemical substance: 3.2
Yeast gene YCR024C-A
  The level of expressed mRNA in the presence of chemical substance/The level of expressed mRNA in the absence of chemical substance: 1.2
Yeast gene YCR037C
  The level of expressed mRNA in the presence of chemical substance/The level of expressed mRNA in the absence of chemical substance: 1.8
Yeast gene YCR098C
  The level of expressed mRNA in the presence of chemical substance/The level of expressed mRNA in the absence of chemical substance: 1.6
Yeast gene YDL128W
  The level of expressed mRNA in the presence of chemical substance/The level of expressed mRNA in the absence of chemical substance: 2.3
Yeast gene YDL198C
  The level of expressed mRNA in the presence of chemical substance/The level of expressed mRNA in the absence of chemical substance: 0.8
Yeast gene YDL210W
  The level of expressed mRNA in the presence of chemical substance/The level of expressed mRNA in the absence of chemical substance: 1.3
Yeast gene YDL245C
  The level of expressed mRNA in the presence of chemical substance/The level of expressed mRNA in the absence of chemical substance: 1.1
Yeast gene YDR038C
  The level of expressed mRNA in the presence of chemical substance/The level of expressed mRNA in the absence of chemical substance: 1.8
Yeast gene YDR039C
  The level of expressed mRNA in the presence of chemical substance/The level of expressed mRNA in the absence of chemical substance: 1.1
Yeast gene YDR086C
  The level of expressed mRNA in the presence of chemical substance/The level of expressed mRNA in the absence of chemical substance: 0.8
Yeast gene YDR270W
  The level of expressed mRNA in the presence of chemical substance/The level of expressed mRNA in the absence of chemical substance: 2.2
Yeast gene YDR298C
  The level of expressed mRNA in the presence of chemical substance/The level of expressed mRNA in the absence of chemical substance: 1.2
Yeast gene YDR342C
  The level of expressed mRNA in the presence of chemical substance/The level of expressed mRNA in the absence of chemical substance: 1.1
Yeast gene YDR343C
  The level of expressed mRNA in the presence of chemical substance/The level of expressed mRNA in the absence of chemical substance: 1.3
Yeast gene YDR345C
  The level of expressed mRNA in the presence of chemical substance/The level of expressed mRNA in the absence of chemical substance: 1.2
Yeast gene YDR387C
  The level of expressed mRNA in the presence of chemical substance/The level of expressed mRNA in the absence of chemical substance: 1.2
Yeast gene YDR497C
  The level of expressed mRNA in the presence of chemical substance/The level of expressed mRNA in the absence of chemical substance: 0.6
Yeast gene YEL027W
  The level of expressed mRNA in the presence of chemical substance/The level of expressed mRNA in the absence of chemical substance: 1.1
Yeast gene YEL063C
  The level of expressed mRNA in the presence of chemical substance/The level of expressed mRNA in the absence of chemical substance: 1.3
Yeast gene YEL065W
  The level of expressed mRNA in the presence of chemical substance/The level of expressed mRNA in the absence of chemical substance: 2.3
Yeast gene YER053C
  The level of expressed mRNA in the presence of chemical substance/The level of expressed mRNA in the absence of chemical substance: 2.8
Yeast gene YER119C
  The level of expressed mRNA in the presence of chemical substance/The level of expressed mRNA in the absence of chemical substance: 1.3
Yeast gene YFL011W
  The level of expressed mRNA in the presence of chemical substance/The level of expressed mRNA in the absence of chemical substance: 1.0
Yeast gene YFL041W
  The level of expressed mRNA in the presence of chemical substance/The level of expressed mRNA in the absence of chemical substance: 2.0
Yeast gene YFL050C
  The level of expressed mRNA in the presence of chemical substance/The level of expressed mRNA in the absence of chemical substance: 0.9
Yeast gene YFL054C
  The level of expressed mRNA in the presence of chemical substance/The level of expressed mRNA in the absence of chemical substance: 2.4
Yeast gene YFL055W
  The level of expressed mRNA in the presence of chemical substance/The level of expressed mRNA in the absence of chemical substance: 1.1
Yeast gene YGL006W
  The level of expressed mRNA in the presence of chemical substance/The level of expressed mRNA in the absence of chemical substance: 1.0
Yeast gene YGL008C
  The level of expressed mRNA in the presence of chemical substance/The level of expressed mRNA in the absence of chemical substance: 1.9
Yeast gene YGL104C
  The level of expressed mRNA in the presence of chemical substance/The level of expressed mRNA in the absence of chemical substance: 2.1
Yeast gene YGL167C
  The level of expressed mRNA in the presence of chemical substance/The level of expressed mRNA in the absence of chemical substance: 2.0
Yeast gene YGL255W
  The level of expressed mRNA in the presence of chemical substance/The level of expressed mRNA in the absence of chemical substance: 1.1
Yeast gene YGR055W
  The level of expressed mRNA in the presence of chemical substance/The level of expressed mRNA in the absence of chemical substance: 1.1
Yeast gene YGR065C
  The level of expressed mRNA in the presence of chemical substance/The level of expressed mRNA in the absence of chemical substance: 2.4
Yeast gene YGR082W
  The level of expressed mRNA in the presence of chemical substance/The level of expressed mRNA in the absence of chemical substance: 1.1
Yeast gene YGR096W
  The level of expressed mRNA in the presence of chemical substance/The level of expressed mRNA in the absence of chemical substance: 1.7
Yeast gene YGR138C
  The level of expressed mRNA in the presence of chemical substance/The level of expressed mRNA in the absence of chemical substance: 0.8
Yeast gene YGR191W
  The level of expressed mRNA in the presence of chemical substance/The level of expressed mRNA in the absence of chemical substance: 1.1
Yeast gene YGR197C
  The level of expressed mRNA in the presence of chemical substance/The level of expressed mRNA in the absence of chemical substance: 0.5
Yeast gene YGR224W
  The level of expressed mRNA in the presence of chemical substance/The level of expressed mRNA in the absence of chemical substance: 0.8
Yeast gene YGR260W
  The level of expressed mRNA in the presence of chemical substance/The level of expressed mRNA in the absence of chemical substance: 0.9
